Laboratory results taken from patent US20250049777A1, “PHARMACEUTICALLY ACCEPTABLE SALT AND CRYSTALLINE FORM OF GLP-1 RECEPTOR AGONIST AND PREPARATION METHOD THEREFOR” (JIANGSU HENGRUI PHARMACEUTICALS CO., LTD., priority 2021, published 2025).
Where a name gives a salt, the structure may show the parent alone. Read-outs that look alike come from different tables or passages of the source.

How the values were obtained:
[1] = Stability of crystal forms of salts under influencing factors (illumination, high temperature, high humidity); type: physicochemical
Description: The sampling and investigation period was 30 days.

[2] = type: physicochemical
Experimental: A salt-type sample was sealed with an aluminum foil bag and placed under the conditions of 25° C./60% RH and 40° C./75% RH, respectively, to investigate the stability.

[3] = Hygroscopicity of crystal forms of salts (DVS, 25° C.); type: physicochemical; settings: for Crystal form after DVS: 0% to 95% RH
Description: According to the description of hygroscopic characteristics and the definition of hygroscopic weight gain in “9103 Guidelines for Hygroscopicity of Pharmaceuticals”, Chinese Pharmacopoeia, Volume IV, 2015 edition, the following are defined: • deliquescent: absorbing enough water to form a liquid; • extremely hygroscopic: having a hygroscopic weight gain of not less than 15%; • hygroscopic: having a hygroscopic weight gain of less than 15% and not less than 2%; • slightly hygroscopic: having a hygroscopic weight gain of less than 2% and not less than 0.2%; and • no or almost no hygroscopicity: having a hygroscopic weight gain of less than 0.2%.
Surface Measurement Systems intrinsic DVS was used at 25° C. The observed humidity ranged from 0% to 95%. The step was 10%. The criterion was that the mass change dM/dT for each step was less than 0.002%. TMAX was 360 min. Two cycles were carried out.

[4] = Illumination (4500 Lux), 5 days, open
[5] = Illumination (4500 Lux), 10 days, open
[6] = Illumination (4500 Lux), 30 days, open
[7] = 25° C./60% RH, 1 month, sealed aluminum foil bag
[8] = 25° C./60% RH, 2 months, sealed aluminum foil bag
[9] = 25° C./60% RH, sealed aluminum foil bag
[10] = 40° C./75% RH, 1 month, sealed aluminum foil bag
[11] = 40° C./75% RH, 2 months, sealed aluminum foil bag
[12] = 40° C./75% RH, sealed aluminum foil bag
[13] = Illumination (4500 Lux), 7 days, open
[14] = Illumination (4500 Lux), 14 days, open
[15] = 40° C./75% RH, 3 months, sealed aluminum foil bag

## O=C(O)c1ccc2nc(CN3CCC(c4cccc5c4O[C@@H](c4ccc(Cl)cc4F)CO5)CC3)n(C[C@@H]3CCO3)c2c1 [Crystal form I of hydrochloride salt, 2-((4-((S)-3-(4-chloro-2-fluorophenyl)-2,3-dihydrobenzo[b][1,4]dioxan-5-yl)piperidin-1-yl)methyl)-1-(((S)-oxetan-2-yl)methyl)-1H-benzo[d]imidazole-6-carboxylic acid]
[1]; 40° C., 5 days, open
  % Purity: 98.0%
  Crystal form: Unchanged
[1]; 40° C., 10 days, open
  % Purity: 98.1%
  Crystal form: Unchanged
[1]; 40° C., 30 days, open
  % Purity: 97.8%
  Crystal form: Unchanged
[1]; 60° C., 5 days, open
  % Purity: 97.6%
  Crystal form: Unchanged
[1]; 60° C., 10 days, open
  % Purity: 97.7%
  Crystal form: Unchanged
[1]; 60° C., 30 days, open
  % Purity: 97.7%
  Crystal form: Unchanged
[1]; 75% RH, 5 days, open
  % Purity: 98.1%
  Crystal form: Unchanged
[1]; 75% RH, 10 days, open
  % Purity: 98.0%
  Crystal form: Unchanged
[1]; 75% RH, 30 days, open
  % Purity: 98.1%
  Crystal form: Unchanged
[1]; 92.5% RH, 5 days, open
  % Purity: 98.1%
  Crystal form: Unchanged
[1]; 92.5% RH, 10 days, open
  % Purity: 97.4%
  Crystal form: Unchanged
[1]; 92.5% RH, 30 days, open
  % Purity: 96.9%
  Crystal form: Unchanged
[1]; [4]
  % Purity: 97.9%
  Crystal form: Unchanged
[1]; [5]
  % Purity: 98.1%
  Crystal form: Unchanged
[1]; [6]
  % Purity: 98.0%
  Crystal form: Unchanged
[1]; Initial condition, 0 days
  % Purity: 98.0%
[2]
  physical and chemical stability: good physical and chemical stability
[2]; [7]
  % Purity: 98.1%
[2]; [8]
  % Purity: 97.9%
[2]; [9]
  Crystal form: Unchanged
[2]; [10]
  % Purity: 97.8%
[2]; [11]
  % Purity: 97.8%
[2]; [12]
  Crystal form: Unchanged
[2]; Initial condition
  % Purity: 98.0%

## O=C(O)c1ccc2nc(CN3CCC(c4cccc5c4O[C@@H](c4ccc(Cl)cc4F)CO5)CC3)n(C[C@@H]3CCO3)c2c1 [Crystal form E of tromethamine salt, 2-((4-((S)-3-(4-chloro-2-fluorophenyl)-2,3-dihydrobenzo[b][1,4]dioxan-5-yl)piperidin-1-yl)methyl)-1-(((S)-oxetan-2-yl)methyl)-1H-benzo[d]imidazole-6-carboxylic acid]
[3]
  hygroscopic weight gain 0.0% RH to 80.0% RH: 7.27%
  Crystal form after DVS: Unchanged
[1]
  chemical stability: slightly poor chemical stability
  physical stability: slightly poor physical stability
[1]; 40° C., 7 days, open
  % Purity: 96.0%
  Crystal form: Unchanged
[1]; 40° C., 14 days, open
  % Purity: 93.6%
  Crystal form: Unchanged
[1]; 40° C., 30 days, open
  % Purity: 85.0%
  Crystal form: Unchanged
[1]; 60° C., 7 days, open
  % Purity: 94.8%
  Crystal form: Unchanged
[1]; 60° C., 30 days, open
  % Purity: 81.8%
  Crystal form: Amorphous form
[1]; 75% RH, 7 days, open
  % Purity: 98.3%
  Crystal form: Unchanged
[1]; 75% RH, 14 days, open
  % Purity: 98.4%
  Crystal form: Unchanged
[1]; 75% RH, 30 days, open
  % Purity: 98.3%
  Crystal form: Unchanged
[1]; 92.5% RH, 7 days, open
  % Purity: 98.2%
  Crystal form: Unchanged
[1]; 92.5% RH, 14 days, open
  % Purity: 98.2%
  Crystal form: Unchanged
[1]; 92.5% RH, 30 days, open
  % Purity: 98.1%
  Crystal form: Amorphous form
[1]; [13]
  % Purity: 98.1%
  Crystal form: Unchanged
[1]; [14]
  % Purity: 97.9%
  Crystal form: Unchanged
[1]; [6]
  % Purity: 95.5%
  Crystal form: Unchanged
[1]; Initial condition, 0 days
  % Purity: 98.3%
[2]
  physical and chemical stability: good physical and chemical stability
[2]; [7]
  % Purity: 98.2%
[2]; [8]
  % Purity: 98.3%
[2]; 25° C./60% RH, 3 months, sealed aluminum foil bag
  % Purity: 98.1%
[2]; [9]
  Crystal form: Unchanged
[2]; [10]
  % Purity: 97.7%
[2]; [11]
  % Purity: 97.7%
[2]; [15]
  % Purity: 97.2%
[2]; [12]
  Crystal form: Unchanged
[2]; Initial condition
  % Purity: 98.3%

## O=C(O)c1ccc2nc(CN3CCC(c4cccc5c4O[C@@H](c4ccc(Cl)cc4F)CO5)CC3)n(C[C@@H]3CCO3)c2c1 [Crystal form α of malate salt, 2-((4-((S)-3-(4-chloro-2-fluorophenyl)-2,3-dihydrobenzo[b][1,4]dioxan-5-yl)piperidin-1-yl)methyl)-1-(((S)-oxetan-2-yl)methyl)-1H-benzo[d]imidazole-6-carboxylic acid]
[1]; 92.5% RH, 5 days, open, listed as crystal form a of malate salt
  % Purity: 99.0%
[1]; Initial condition, 0 days, listed as crystal form a of malate salt
  % Purity: 99.0%
[2]; [15]
  % Purity: 97.1%
[2]; Initial condition
  % Purity: 99.0%

## O=C(O)c1ccc2nc(CN3CCC(c4cccc5c4O[C@@H](c4ccc(Cl)cc4F)CO5)CC3)n(C[C@@H]3CCO3)c2c1 [Crystal form I of tartrate salt, 2-((4-((S)-3-(4-chloro-2-fluorophenyl)-2,3-dihydrobenzo[b][1,4]dioxan-5-yl)piperidin-1-yl)methyl)-1-(((S)-oxetan-2-yl)methyl)-1H-benzo[d]imidazole-6-carboxylic acid]
[3]
  hygroscopic weight gain 0.0% RH to 80.0% RH: 1.44%
  Crystal form after DVS: Unchanged
[1]; 40° C., 5 days, open
  % Purity: 98.4%
  Crystal form: Unchanged
[1]; 40° C., 10 days, open
  % Purity: 98.1%
  Crystal form: Unchanged
[1]; 40° C., 30 days, open
  % Purity: 97.6%
  Crystal form: Unchanged
[1]; 60° C., 5 days, open
  % Purity: 97.9%
  Crystal form: Unchanged
[1]; 60° C., 10 days, open
  % Purity: 97.2%
  Crystal form: Unchanged
[1]; 60° C., 30 days, open
  % Purity: 96.4%
  Crystal form: Unchanged
[1]; 75% RH, 5 days, open
  % Purity: 98.6%
  Crystal form: Unchanged
[1]; 75% RH, 10 days, open
  % Purity: 98.6%
  Crystal form: Unchanged
[1]; 75% RH, 30 days, open
  % Purity: 98.4%
  Crystal form: Unchanged
[1]; 92.5% RH, 5 days, open
  % Purity: 98.7%
  Crystal form: Unchanged
[1]; 92.5% RH, 10 days, open
  % Purity: 98.6%
  Crystal form: Unchanged
[1]; 92.5% RH, 30 days, open
  % Purity: 98.3%
  Crystal form: Unchanged
[1]; [4]
  % Purity: 98.7%
  Crystal form: Unchanged
[1]; [5]
  % Purity: 98.6%
  Crystal form: Unchanged
[1]; [6]
  % Purity: 98.3%
  Crystal form: Unchanged
[1]; Initial condition, 0 days
  % Purity: 98.8%
[2]
  physical and chemical stability: good physical and chemical stability
[2]; [9]
  Crystal form: Unchanged
[2]; [12]
  Crystal form: Unchanged
[2]; Initial condition
  % Purity: 98.8%
